Reference: patent US11298358B2, “Combination therapy using ascochlorin derivative” (priority 2017, dated 2022)
Like-named read-outs stand apart in the source and are kept apart here. Each block holds one compound with its values, some of them ahead of it.

Tests used:
HT29 = experiment: Anti-proliferative activity, CellTiterGlo assay, HT29; type: cell-based; details: Homo sapiens, HT-29; HT29, 96 hrs incubation; read-out: Antiproliferative activities (IC50) HT29
Method: (§1) The anti-proliferative activities of the compounds against 6 human cancer cell lines were determined by CellTiterGlo assay kit. All cells were obtained from ATCC and cultured as recommended by the vendor. Cells were assayed in exponential growth phase. Sample solution was prepared by 3-fold serial dilution from 30 mM stock for 10 doses in DMSO. Antiproliferative activities were measured by CellTiterGlo assay kit according to the protocol after cells were incubated for 96 hrs in a 37° C., 5% CO2 incubator.
(§2) On the 4th day of incubation, i) 15 μl reagent (CelltiterGlo assay kit) was added per well and plate was shaken (avoiding light) for 2 mins on a plate shaker, ii) the plate was kept (avoiding light) in room temperature for 30 min, and iii) the luminescence value was recorded by Multiplate reader.

MDA-MB-231 = experiment: Anti-proliferative activity, CellTiterGlo assay, MDA-MB-231; type: cell-based; details: Homo sapiens; MDA-MB-231, 96 hrs incubation; read-out: Antiproliferative activities (IC50) MDA-MB-231
Method: as §1, §2

A549 = experiment: Anti-proliferative activity, CellTiterGlo assay, A549; type: cell-based; details: Homo sapiens; A549, 96 hrs incubation; read-out: Antiproliferative activities (IC50) A549
Method: as §1, §2

[1] = Stability against human liver microsomes; type: in vitro ADME; details: 2 μM compound
Method: (§3) Determination of Stability Against Mouse and Human Microsomes
(§4) Pooled human liver microsomes (Cat. 452161; Lot. 23418) were purchased from Corning and pooled male mouse liver microsomes (Cat. M1000; Lot. 1210302) were purchased from Xenotech. Microsomes were stored at −80° C. prior to use. 40 μL of ultra-pure H2O was used instead of NADPH solution in the negative control. The negative control was used to exclude the misleading factor that was resulted from instability of chemical itself. Samples with NADPH were prepared in duplicate. Negative controls were prepared in singlet.
(§5) The reaction was started with the addition of 4 μL of 200 μM compound solution to each master solution to get the final concentration of 2 μM. Verapamil was used as positive control in the assay. Aliquots of 50 μL were taken from the reaction solution at 0, 15, 30, 45 and 60 min. The reaction was stopped by addition of 4 volumes of cold acetonitrile with IS (200 nM imipramine, […] labetalol and 2 μM ketoprofen). Samples were centrifuged at 3,220 g for 40 minutes. Aliquot of 90 μL of the supernatant was mixed with 90 μL of ultra-pure H2O and then was used for LC-MS/MS analysis. Results are shown in Table 3 by indicating remaining % of the test compound after 60 minutes incubation with liver microsomes from human and mouse in the presence of NADPH.

[2] = Stability against mouse liver microsomes; type: in vitro ADME; details: 2 μM compound
Method: as §3, §4, §5

LNCaP = experiment: Anti-proliferative activity, CellTiterGlo assay, LNCaP; type: cell-based; details: Homo sapiens, 96 hrs incubation, read-out: Antiproliferative activities (IC50) LNCaP
Method: as §1, §2

BxPC-3 = experiment: Anti-proliferative activity, CellTiterGlo assay, BxPC-3; type: cell-based; details: Homo sapiens; BxPC-3, 96 hrs incubation; read-out: Antiproliferative activities (IC50) BxPC-3
Method: as §1, §2

U87-MG = experiment: Anti-proliferative activity, CellTiterGlo assay, U87-MG; type: cell-based; details: Homo sapiens, U-87 MG, 96 hrs incubation, read-out: Antiproliferative activities (IC50) U87-MG
Method: as §1, §2

AMPK in HepG2 cell = details: HepG2 cells, reported in the literature; cited from earlier work
[3] = Solubility in pH4.0 and pH7.4 phosphate buffer solution; details: 2 hr incubation, 25° C.
Method: 1) Preparation of Stock Solutions
The stock solutions of test compounds and positive control compound were prepared in DMSO at the concentration of 30 mM. Diclofenac was used as positive control in the assay.
2) Procedures for Solubility Determination
The stock solution of each compound (10 μL) was placed in order into their proper 96-well rack, followed by adding 990 μL of PBS at pH 4.0 and pH 7.4 into each vial of the cap-less Solubility Sample plate. This study was performed in duplicate. One stir stick was added to each vial and then vials were sealed using a molded PTDE/SIL 96-Well Plate Cover. The Solubility Sample plate was transferred to the Thermomixer Comfort plate shaker and incubated at 25° C. for 2 hours with shaking at 1,100 rpm. After 2 hours incubation, stir sticks were removed using a big magnet and all samples from the Solubility Sample plate were transferred into the filter plate. All the samples were filtered by using the vacuum manifold. The filtered samples were diluted with methanol.
3) Samples Analyzed by LC-MS/MS:
The LC system comprised a Shimadzu liquid chromatograph separation system equipped with degasser DGU-20A3, solvent delivery unit LC-20AD, system controller CBM-20A, column oven CTO-10ASVP and CTC Analytics HTC PAL System. Mass spectrometric analysis was performed using an API 4000 instrument from AB Inc (Canada) with an ESI interface.

CT26 tumor cells = experiment: Efficacy study in CT26 syngeneic mouse model; type: in vivo; details: for antitumor activity (in words): Cmpd 19 alone
Method: An efficacy study was conducted by using Compound 19 (Cmpd 19) with CT26 syngeneic mouse model. Female BALB/c mice (Vital River, Beijing, China) of 7 to 9 weeks old with body weight between 19 and 21 g were used. Each mouse was inoculated subcutaneously on the right flank with CT26 tumor cells (2×10^5) in 0.1 mL of PBS for tumor development. On Day 5 after tumor inoculation, mice were randomized into groups. Each group consisted of 10 tumor-bearing mice. The treatment with Cmpd 19 was then started on Day 5.
As an anti PD-1 antibody, anti-mouse PD-1 antibody (CD279, Clone: RMP1-14, Catalog #: BE0146 from Bio X Cell) was used.
The measurement of tumor size was conducted three times weekly with calipers, and the tumor volume (mm^3) is estimated using the formula: TV=(a×b^2)/2, where “a” and “b” are long and short diameters of a tumor, respectively. The TVs were used for calculation of the tumor growth inhibition (TGI, an indicator of antitumor effectiveness), using formula: TGI=(1−T/C)×100%, where “T” and “C” are the mean relative volumes (% tumor growth) of the tumors in the treated and the control groups. Data were analyzed using GraphPad Software and represented as the mean value±SD in FIG. 3 in which error bars are shown. The p values were assessed using One-Way ANOVA Dunnett test and vehicle control (G1) as control group. A case with p<0.05 was considered as statistically significant.

[4] = G3: Cmpd 19 50 mg/kg p.o. once a day x 18
[5] = G4: Cmpd 19 25 mg/kg p.o. once a day x 18

IC50 (HT29): 10 µM | IC50 (MDA-MB-231): 6.8 µM | IC50 (A549): 6.5 µM | Liver microsome stability remaining % after 60 min incubation with NADPH, human LM [1]: 71% | Liver microsome stability remaining % after 60 min incubation with NADPH, mouse LM [2]: 71% | IC50 (LNCaP): 7.2 µM | IC50 (BxPC-3): 12.8 µM | IC50 (U87-MG): 13.1 µM
SMILES: COc1c(Cl)c(C)c(/C=N/O)c(O)c1C/C=C(C)/C=C/[C@@]1(C)[C@H](C)CC[C@](C)(O)[C@@H]1C [Compound 7, 4-chloro-2-[(2E,4E)-5-[(1R,2R,3S,6R)-3-hydroxy-1,2,3,6-tetramethylcyclohexyl]-3-methylpenta-2,4-dien-1-yl]-6-[(1E)-(hydroxyimino)methyl]-3-methoxy-5-methylphenol]

Liver microsome stability remaining % after 60 min incubation with NADPH, human LM [1]: 99% | Liver microsome stability remaining % after 60 min incubation with NADPH, mouse LM [2]: 88%
SMILES: CO/N=C/c1c(C)c(Cl)c(OC)c(C/C=C(C)/C=C/[C@@]2(C)[C@H](C)CC[C@](C)(O)[C@@H]2C)c1O [Compound 14, 4-chloro-2-[(2E,4E)-5-[(1R,2R,3S,6R)-3-hydroxy-1,2,3,6-tetramethylcyclohexyl]-3-methylpenta-2,4-dien-1-yl]-3-methoxy-6-[(1E)-(methoxyimino)methyl]-5-methylphenol]

SMILES: COc1c(Cl)c(C)c(C=O)c(O)c1C/C=C(C)/C=C/[C@@]1(C)[C@H](C)CCC(=O)[C@@H]1C [MAC, 4-O-Methy-ascochlorin]
AMPK activation in HepG2 cell (AMPK in HepG2 cell): ability for activating AMPK | Solubility pH 4.0 PBS (pH 4): <0.08 μM | Solubility pH 7.4 PBS (pH 7.4): 0.07 μM

Solubility pH 4.0 PBS ([3]; pH 4.0 phosphate buffer solution): converted to MAC | Solubility pH 7.4 PBS ([3]; pH 7.4 phosphate buffer solution): 0.02 μM
SMILES: COc1c(Cl)c(C)c(C=NCC(N)=O)c(O)c1C/C=C(C)/C=C/[C@@]1(C)[C@H](C)CCC(=O)[C@@H]1C [compound #13 in WO2004/074236]

SMILES: CN(C)C(=N)N=C(N)N [Metformin]
AMPK activation in HepG2 cell (AMPK in HepG2 cell): only at surprisingly high concentration of mM level

SMILES: CO/N=C/c1c(C)c(Cl)c(OC)c(C/C=C(C)/C=C/[C@@]2(C)[C@H](C)CC/C(=N\OCC(=O)O)[C@@H]2C)c1O [Compound 19, 2-([[(1E,2R,3R,4R)-3-[(1E,3E)-5-[3-chloro-6-hydroxy-2-methoxy-5-[(1E)-(methoxyimino)methyl]-4-methylphenyl]-3-methylpenta-1,3-dien-1-yl]-2,3,4-trimethylcyclohexylidene]amino]oxy)acetic acid]
antitumor activity (in words) (CT26 tumor cells; 25 mg/kg p.o.): minor or no antitumor activity | antitumor activity (in words) (CT26 tumor cells; 50 mg/kg p.o.): minor or no antitumor activity | TGI (%) (CT26 tumor cells; [4]): −1.4% | Tumor volume (mm^3, on Day 23) (CT26 tumor cells; [4]): 6,483 ± 310 mm^3 | TGI (%) (CT26 tumor cells; [5]): 6.5% | Tumor volume (mm^3, on Day 23) (CT26 tumor cells; [5]): 6,056 ± 689 mm^3
